The values below come from patent US7960368B2, “Bismethylene-17A carbolactones and related uses” (Everstra, Inc., priority 2008, dated 2011).

In data set [1] the target is T1, recombinant human progesterone receptor A (hPR-A) (Homo sapiens, UniProt P06401).
T1 sequence (P06401 1-769 isoform P06401-2): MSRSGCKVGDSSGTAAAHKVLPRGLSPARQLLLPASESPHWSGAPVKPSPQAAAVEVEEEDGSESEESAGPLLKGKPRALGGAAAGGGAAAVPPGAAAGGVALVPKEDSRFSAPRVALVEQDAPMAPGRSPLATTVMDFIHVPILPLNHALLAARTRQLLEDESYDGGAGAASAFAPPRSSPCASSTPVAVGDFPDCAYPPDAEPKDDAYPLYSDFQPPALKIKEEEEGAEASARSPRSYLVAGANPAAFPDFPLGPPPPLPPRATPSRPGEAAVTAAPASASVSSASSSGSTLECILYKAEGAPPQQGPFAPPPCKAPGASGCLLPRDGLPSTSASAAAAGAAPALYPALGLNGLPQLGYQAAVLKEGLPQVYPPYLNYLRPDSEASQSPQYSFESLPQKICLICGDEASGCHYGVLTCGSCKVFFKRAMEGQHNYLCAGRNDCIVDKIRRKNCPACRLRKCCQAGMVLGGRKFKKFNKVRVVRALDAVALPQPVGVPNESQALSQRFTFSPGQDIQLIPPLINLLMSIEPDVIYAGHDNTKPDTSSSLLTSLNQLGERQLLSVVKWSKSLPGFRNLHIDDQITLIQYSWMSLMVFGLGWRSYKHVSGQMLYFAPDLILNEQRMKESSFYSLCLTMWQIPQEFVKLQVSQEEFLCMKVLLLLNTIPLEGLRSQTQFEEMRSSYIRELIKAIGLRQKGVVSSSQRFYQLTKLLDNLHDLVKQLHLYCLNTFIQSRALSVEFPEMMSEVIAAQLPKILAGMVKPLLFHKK
In words: Progestin receptor binding assay, hPR-A. Particulars: for IC50: competition with [3H]-progesterone; for hPR-A RBA: relative binding affinity, progesterone = 100. The method, then: (§1) “No compound” controls contain DMSO/binding buffer without compound. The plates are incubated overnight at 4° C., after which solutions in the plates are aspirated and washed six times with PBS, followed by the addition of MicroScint-20 scintillation cocktail (Packard). The plates are sealed using transparent sealing tape and counted for radioactivity by use of the scintillation counter.

Data set [2] deals with T2, recombinant rat androgen receptor ligand binding domain (ARLBD) (Rattus norvegicus, UniProt P15207).
T2 sequence (P15207 651-882 limits assumed): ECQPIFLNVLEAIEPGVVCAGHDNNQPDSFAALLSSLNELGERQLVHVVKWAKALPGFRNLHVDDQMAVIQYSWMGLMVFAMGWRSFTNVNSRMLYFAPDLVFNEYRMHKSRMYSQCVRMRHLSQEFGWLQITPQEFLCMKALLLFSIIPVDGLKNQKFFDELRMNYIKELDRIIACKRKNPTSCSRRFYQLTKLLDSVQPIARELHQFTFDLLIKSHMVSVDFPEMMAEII
In words: Androgen receptor binding assay. Particulars: for IC50: superscript marks the assay run. The method, then: The relative affinity of test substances for the androgen receptor was taken as a measure of androgen antagonist activity and of the potential for anti-androgen side effects. […] Different concentrations (e.g., 10 nM, 15 nM or 30 nM) of purified recombinant ARLBD are immobilized to an OptiPlate 96-well microtiter plate (Packard) via incubation at 4° C. in 100 μl/well PBS containing ARLBD. […] “No compound” controls contain DMSO/binding buffer without compound. The plates are incubated overnight at 4° C., after which solutions in the plates are aspirated and washed six times with PBS, followed by the addition of MicroScint-20 scintillation cocktail (Packard). The plates are sealed using transparent sealing tape and counted for radioactivity by use of the scintillation counter. The data thus obtained is used to determine the IC50 values and the relative binding affinity (“RBA”) of the androgen receptor for the test compound.

The target of data set [3] is T3, recombinant human progesterone receptor B (hPR-B) (Homo sapiens, UniProt P06401).
T3 sequence (P06401 1-933): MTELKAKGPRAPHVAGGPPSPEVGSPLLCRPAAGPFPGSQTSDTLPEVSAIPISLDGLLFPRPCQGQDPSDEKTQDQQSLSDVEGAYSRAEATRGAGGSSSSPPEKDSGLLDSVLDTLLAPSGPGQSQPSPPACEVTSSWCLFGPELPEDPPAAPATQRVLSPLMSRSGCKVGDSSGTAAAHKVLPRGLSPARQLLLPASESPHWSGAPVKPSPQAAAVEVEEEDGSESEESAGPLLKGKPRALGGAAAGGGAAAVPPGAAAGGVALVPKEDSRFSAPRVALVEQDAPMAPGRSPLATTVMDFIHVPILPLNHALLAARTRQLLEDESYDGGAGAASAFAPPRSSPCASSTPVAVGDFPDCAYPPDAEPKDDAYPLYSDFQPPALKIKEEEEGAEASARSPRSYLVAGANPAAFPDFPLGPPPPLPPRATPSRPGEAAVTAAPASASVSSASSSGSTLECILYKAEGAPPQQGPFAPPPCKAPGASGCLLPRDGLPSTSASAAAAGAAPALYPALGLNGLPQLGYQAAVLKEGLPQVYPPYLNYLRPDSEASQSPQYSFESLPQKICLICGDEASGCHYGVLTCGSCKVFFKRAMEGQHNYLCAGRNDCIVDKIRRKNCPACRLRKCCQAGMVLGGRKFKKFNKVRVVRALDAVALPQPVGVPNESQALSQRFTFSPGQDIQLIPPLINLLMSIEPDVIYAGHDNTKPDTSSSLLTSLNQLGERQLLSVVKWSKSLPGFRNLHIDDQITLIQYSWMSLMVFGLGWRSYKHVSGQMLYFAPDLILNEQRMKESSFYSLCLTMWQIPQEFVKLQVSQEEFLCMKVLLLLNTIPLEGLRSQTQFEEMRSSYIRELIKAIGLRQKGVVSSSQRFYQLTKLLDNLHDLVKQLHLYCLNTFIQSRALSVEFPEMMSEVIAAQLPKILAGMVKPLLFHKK
In words: Progestin receptor binding assay, hPR-B. The following applies: for IC50: competition with [3H]-progesterone; for hPR-B RBA: relative binding affinity, progesterone = 100. Here is the method:
as §1

For data set [4], the target named is T4, recombinant human glucocorticoid receptor (rhGR) (Homo sapiens, UniProt P04150).
T4 sequence (P04150 1-777): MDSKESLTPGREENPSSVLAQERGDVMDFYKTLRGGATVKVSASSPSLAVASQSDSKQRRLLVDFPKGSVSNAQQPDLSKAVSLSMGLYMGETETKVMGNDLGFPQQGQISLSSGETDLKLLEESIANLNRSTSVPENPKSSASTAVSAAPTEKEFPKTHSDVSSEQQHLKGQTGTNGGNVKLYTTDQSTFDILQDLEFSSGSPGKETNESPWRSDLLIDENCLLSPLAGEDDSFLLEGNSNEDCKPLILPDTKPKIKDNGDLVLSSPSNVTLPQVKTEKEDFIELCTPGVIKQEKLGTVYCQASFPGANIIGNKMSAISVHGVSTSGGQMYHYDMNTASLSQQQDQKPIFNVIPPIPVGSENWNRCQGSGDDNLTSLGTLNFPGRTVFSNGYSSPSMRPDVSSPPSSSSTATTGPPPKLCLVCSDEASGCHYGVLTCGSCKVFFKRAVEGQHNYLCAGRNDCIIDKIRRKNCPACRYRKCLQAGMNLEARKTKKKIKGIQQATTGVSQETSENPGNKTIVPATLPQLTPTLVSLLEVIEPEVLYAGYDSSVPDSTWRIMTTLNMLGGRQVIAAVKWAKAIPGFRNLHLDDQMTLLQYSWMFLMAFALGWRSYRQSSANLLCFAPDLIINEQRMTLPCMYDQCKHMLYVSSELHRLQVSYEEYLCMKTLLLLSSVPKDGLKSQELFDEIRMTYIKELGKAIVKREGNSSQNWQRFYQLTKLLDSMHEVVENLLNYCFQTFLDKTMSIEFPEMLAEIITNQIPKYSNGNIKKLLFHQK
As to the kind of experiment: Glucocorticoid receptor binding assay. Particulars: hGR IC50, competition with 10 nM [3H]dexamethasone; superscript marks the assay run.
Procedure: DCC is added to the wells after incubation to separate bound and unbound radioligand using a repeater pipettor to reduce variability.
Recombinant human GR: 8.6 pmol/mg, 80 pmol/ml. • 2. KEM buffer (10 mM KPO4, pH 7.4, 0.1 mM EDTA, 20 mM Na2MoO4) • 3. KEMD buffer (KEM buffer+5 mM DTT, add DTT the day of assay) • 4. […] 5% Dextran-coated charcoal solution in DEM buffer B. Assay Method—Set Up on Ice. • 1. Dilute 4×10^−3 M CDB-3972 to 4×10^−5 M (40 μM) in KEMD for NSB. The final concentration will be 10 μM. • 2. Thaw the rhGR on ice. […] Dilute rhGR 1:5 (80 pmol/ml) to 16.0 pmol/ml in KEMD. At 25 μl/tube, the final concentration will be 400 fmol/tube in KEMD. • 3. Prepare KEMD containing 10% ethanol. Dilute the compounds to be assayed in KEMD containing 10% ethanol to the working concentrations specified in Table 3. • 4. Prepare a 40 nM solution [^3H]Dex in KEMD containing 10% ethanol. The final concentration will be 10 nM. • 5. Set up the assay in microplates. Use 3 wells for total counts (no receptor), 3 NSB, 6 total binding, and triplicate wells for each concentration of dex or CDB compound. […] Mix gently, and incubate overnight at 2-6° C.
The next morning, prechill the Jouan centrifuge with microplate rotor. Add 50 μl of 5% DCC in KEM to all but total counts using a repeater pipettor. Make sure the DCC is constantly mixed and thoroughly resuspended before adding to the wells. • 7. Mix gently in the cold room for 5 min on plate shaker. • 8. Centrifuge at 3,000 rpm in the Jouan centrifuge at 4° C. for 15 min. • 9. Keeping the plates on ice, pipet 100 μl of the supernatants into 24-well plates, add 1 ml of Microscint PS, and seal the plates. Pre-incubate the plates for 10 min in the counter, and count each well for 2 min in the TopCount.

For data set [5] the following is noted: single entity tablet; cited from earlier work.
For data set [6] the following is noted: acidic conditions such as the gastric environment; cited from earlier work.
The conditions of data set [7]: various pH values; cited from earlier work.
[8] abbreviates: ARLBD IC50, competition with 5 nM [3H]-R1881.
Setting [9] is: competition with 5 nM [3H]-R1881, read-out: ARLBD IC50.

In general, IC50 refers to the concentration at which inhibition is half-maximal.

SMILES strings stand for the structures. “And” between values parts separate entries of the source, which are not always exact repeats. Equal entries are not always repeated. Where two headings read alike, the source gives them in different places.

Take `C[C@@]12C(=CC(=O)C3C[C@@H]31)C1(CC1)CC1C2CC[C@@]2(C)C1[C@@H]1CC1[C@@]21CCC(=O)O1` (stereo partly drawn) [Compound (IVc), 1α,2α:15β,16β-Dimethylene-6,6-ethylene-3-oxo-17α-pregn-4-ene-21,17-carbolactone]: the IC50 was 6.7 nM in data set [1]; 83.6 nM and 80.9 nM in data set [2] (setting [8]); 8.3 nM in data set [3]; 117 nM and 300 nM in data set [4]. In addition, the “hPR-A RBA” value in data set [1] was 78%. Moreover, the “ARLBD RBA” value in data set [2] was 7% and 5%. Further, in data set [3], the “hPR-B RBA” value is recorded as 71%.
`C[C@]12CCC(=O)C=C1C1(CC1)CC1C2CC[C@@]2(C)C1[C@@H]1CC1[C@@]21CCC(=O)O1` (stereo partly shown) [Compound (IVa)]: the IC50 in data set [1] is 3.5 nM; in data set [2] (setting [8]), 28 nM and 17.7 nM; in data set [3] it was 5.1 nM; in data set [4], 45.1 nM and 64 nM. Moreover, the “hPR-A RBA” value in data set [1] worked out at 149%. The “ARLBD RBA” value in data set [2] was 20% and 25%. Further, in data set [3], the “hPR-B RBA” value worked out at 116%.
Consider `C[C@]12CC3(CC3)C(=O)C=C1[C@@H]1CC1C1C2CC[C@@]2(C)C1[C@@H]1CC1[C@@]21CCC(=O)O1` (stereo partly drawn) [Compound (IIIe), 2,2-Ethylene-6β,7β:15β,16β-dimethylene-3-oxo-17α-pregn-4-ene-21,17-carbolactone], for which the IC50 in data set [1], in data set [2] (setting [9]), in data set [3] and in data set [4] was more than 1000 nM each time. In addition, the “hPR-A RBA” value in data set [1] is less than 0.6%. The “ARLBD RBA” value in data set [2] is <0.6% and <0.5%. Further, the “hPR-B RBA” value in data set [3] was less than 0.6%.
For the compound `C[C@]1(O)CC[C@H]2[C@@H]3CCC4=CC(=O)CCC4=C3C=C[C@@]21C` [Compound R1881, methyltrienolone, reference compound], the “ARLBD RBA” value in data set [2] (relative binding affinity, R1881 = 100, same assay run) is 100%.
For the compound `C[C@]12CCC(=O)C=C1[C@@H]1C[C@@H]1[C@H]1[C@@H]3[C@@H]4C[C@@H]4[C@@]4(CCC(=O)O4)[C@@]3(C)CC[C@@H]12` [Drospirenone, 6β,7β,15β,16β-dimethylene-3-oxo-17α-pregn-4-ene-21,17-carbolactone], the absolute bioavailability result in data set [5] is given as “about 76%”. Besides, the “isomerization under acidic conditions” value in data set [6] is “undergo isomerization to a form that is inactive”. Also, the “hPR-A RBA” value in data set [1] is listed as 23%. Further, in data set [3], the “hPR-B RBA” value came to 29%. Also, the solubility in water entry in data set [7] is “sparingly soluble”.
Regarding `C[C@]12C=CC(=O)C=C1C1(CC1)CC1C2CC[C@@]2(C)C1[C@@H]1CC1[C@@]21CCC(=O)O1` (stereo partly drawn) [Compound (IVb), 6,6-ethylene-15β,16β-methylene-3-oxo-17α-pregna-1,4-diene 21,17-carbolactone], the IC50 is 13.8 nM in data set [1]; 101 nM and 108 nM in data set [2] (setting [9]); 15.4 nM in data set [3]; 87.9 nM and 121 nM in data set [4]. In addition, in data set [1], the “hPR-A RBA” value is 38%. In addition, in data set [2], the “ARLBD RBA” value was 5% and 4%. In addition, in data set [3], the “hPR-B RBA” value was 38%.
